Experimental findings from ChEMBL document CHEMBL4028801, “A multifactorial approach to hepatobiliary transporter assessment enables improved therapeutic compound development” (Toxicol Sci, 2013) are described below.

Data set [1] is described as follows: Ratio of drug concentration at steady state in human at 400 to 800 mg, po QD used as formulation with ritonavir measured after 24 hrs to IC50 for human MRP4 overexpressed in Sf9 insect cells. It is filed as ADME, organism-based. To be noted: in vivo.
In data set [2] the target is ATP-binding cassette sub-family C member 2 (Homo sapiens, UniProt Q92887). Put plainly: Inhibition of human MRP2 overexpressed in Sf9 cell membrane vesicles assessed as uptake of [3H]-estradiol-17beta-D-glucuronide in presence of ATP and GSH measured after 20 mins by membrane vesicle transport assay.
Data set [3] in a line: AUC in human at 400 to 800 mg, po QD used as formulation with ritonavir measured after 24 hrs. It counts as ADME, organism-based. The following applies: in vivo.
A short description of data set [4]: Ratio of drug concentration at steady state in human at 400 to 800 mg, po QD used as formulation with ritonavir measured after 24 hrs to IC50 for human BSEP overexpressed in Sf9 insect cells. It counts as ADME, organism-based. The following applies: in vivo.
The target of data set [5] is T1, ATP-binding cassette sub-family C member 4 (Homo sapiens, UniProt O15439).
T1 sequence (O15439 whole entry): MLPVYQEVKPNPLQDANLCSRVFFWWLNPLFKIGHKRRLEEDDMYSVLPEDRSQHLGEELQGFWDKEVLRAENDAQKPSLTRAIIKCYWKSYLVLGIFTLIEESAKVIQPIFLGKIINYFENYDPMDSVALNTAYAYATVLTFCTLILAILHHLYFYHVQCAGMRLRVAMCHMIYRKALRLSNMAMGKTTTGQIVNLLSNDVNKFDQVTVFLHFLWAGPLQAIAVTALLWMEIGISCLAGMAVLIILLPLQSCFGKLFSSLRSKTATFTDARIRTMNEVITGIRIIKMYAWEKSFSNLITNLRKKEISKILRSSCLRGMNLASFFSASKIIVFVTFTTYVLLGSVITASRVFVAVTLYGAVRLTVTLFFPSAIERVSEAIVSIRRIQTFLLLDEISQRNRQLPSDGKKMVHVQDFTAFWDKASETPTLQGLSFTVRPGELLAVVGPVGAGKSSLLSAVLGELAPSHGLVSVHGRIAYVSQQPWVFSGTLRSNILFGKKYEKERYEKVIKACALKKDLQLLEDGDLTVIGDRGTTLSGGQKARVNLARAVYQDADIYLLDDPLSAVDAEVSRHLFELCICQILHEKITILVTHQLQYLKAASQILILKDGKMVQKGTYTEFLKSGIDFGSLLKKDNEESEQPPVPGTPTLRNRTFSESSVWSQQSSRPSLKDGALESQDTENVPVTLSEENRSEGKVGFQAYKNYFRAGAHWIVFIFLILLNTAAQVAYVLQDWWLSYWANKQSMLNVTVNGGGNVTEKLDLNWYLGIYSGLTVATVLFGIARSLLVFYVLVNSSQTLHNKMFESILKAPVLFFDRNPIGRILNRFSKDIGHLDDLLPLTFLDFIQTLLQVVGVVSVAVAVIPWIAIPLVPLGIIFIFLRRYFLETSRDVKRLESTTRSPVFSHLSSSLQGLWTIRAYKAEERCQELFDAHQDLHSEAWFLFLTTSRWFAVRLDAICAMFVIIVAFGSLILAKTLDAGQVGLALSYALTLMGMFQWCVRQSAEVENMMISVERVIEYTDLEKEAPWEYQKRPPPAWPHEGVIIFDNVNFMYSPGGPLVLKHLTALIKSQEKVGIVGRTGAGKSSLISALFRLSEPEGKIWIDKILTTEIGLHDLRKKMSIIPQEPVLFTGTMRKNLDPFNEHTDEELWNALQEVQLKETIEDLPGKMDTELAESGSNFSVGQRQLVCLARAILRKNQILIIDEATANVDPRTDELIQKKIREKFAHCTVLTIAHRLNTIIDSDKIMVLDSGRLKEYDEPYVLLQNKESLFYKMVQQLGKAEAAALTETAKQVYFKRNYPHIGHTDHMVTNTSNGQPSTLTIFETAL
Kind of data set: Inhibition of human MRP4 overexpressed in Sf9 cell membrane vesicles assessed as uptake of [3H]-estradiol-17beta-D-glucuronide in presence of ATP and GSH measured after 20 mins by membrane vesicle transport assay. It is filed as ADME, cell-based.

Data set [6] is described as follows: Drug concentration at steady state in human at 400 to 800 mg, po QD used as formulation with ritonavir measured after 24 hrs. It counts as ADME, organism-based. To be noted: in vivo, read-out: Css.
Data set [7] is described as follows: Ratio of drug concentration at steady state in human at 400 to 800 mg, po QD used as formulation with ritonavir measured after 24 hrs to IC50 for human MRP3 overexpressed in Sf9 insect cells. It counts as ADME, organism-based. The following applies: in vivo.
For data set [8], the target named is ATP-binding cassette sub-family C member 3 (Homo sapiens, UniProt O15438). Kind of data set: Inhibition of human MRP3 overexpressed in Sf9 insect cell membrane vesicles assessed as uptake of [3H]-estradiol-17beta-D-glucuronide in presence of ATP and GSH measured after 10 mins by membrane vesicle transport assay. It is filed as ADME, cell-based.
The nature of data set [9]: Drug concentration at steady state in human at 50 ug, sc BID/TID co-treated with 50 to 500 ug, sc TID of sandostatin LAR measured after 8 hrs. It is filed as ADME, organism-based. The following applies: in vivo, read-out: Css.
Data set [10] is described as follows: Ratio of drug concentration at steady state in human at 50 ug, sc BID/TID co-treated with 50 to 500 ug, sc TID of sandostatin LAR measured after 8 hrs to IC50 for human BSEP overexpressed in Sf9 insect cells. To be noted: in vivo. It counts as ADME, organism-based.
The target in data set [11] is Bile salt export pump (Homo sapiens, UniProt O95342). Put plainly: Inhibition of human BSEP overexpressed in Sf9 cell membrane vesicles assessed as uptake of [3H]-taurocholate in presence of ATP measured after 15 to 20 mins by membrane vesicle transport assay. It is filed as ADME, cell-based.
Data set [12] can be described thus: AUC in human at 50 ug, sc BID/TID co-treated with 50 to 500 ug, sc TID of sandostatin LAR measured after 8 hrs. Set-up: dose 50 ug, time < 8 hr, route subcutaneous. It counts as ADME, organism-based. To be noted: in vivo.
The nature of data set [13]: Drug concentration at steady state in human at 200 mg, po TID after 8 hrs. It counts as ADME, organism-based. The following applies: in vivo, read-out: Css.
The nature of data set [14]: AUC in human at 200 mg, po TID after 8 hrs. Set-up: time < 8 hr, dose 200 mg, route oral. The following applies: in vivo. It is filed as ADME, organism-based.
Data set [15] can be described thus: Ratio of drug concentration at steady state in human at 200 mg, po TID after 8 hrs to IC50 for human BSEP overexpressed in Sf9 insect cells. It counts as ADME, organism-based. To be noted: in vivo.
Data set [16] in a line: Ratio of drug concentration at steady state in human at 600 mg administered twice weekly followed by 600 mg administered once in a week measured after 84 hrs to IC50 for human BSEP overexpressed in Sf9 insect cells. The following applies: in vivo. It is filed as ADME.
Data set [17] can be described thus: AUC in human at 600 mg administered twice weekly followed by 600 mg administered once in a week measured after 84 hrs. It is filed as ADME. Set-up: dose 600 mg, time < 84 hr. The following applies: in vivo.
A short description of data set [18]: Ratio of drug concentration at steady state in human at 600 mg administered twice weekly followed by 600 mg administered once in a week measured after 84 hrs to IC50 for human MRP4 overexpressed in Sf9 insect cells. It counts as ADME. To be noted: in vivo.
Data set [19] can be described thus: Drug concentration at steady state in human at 600 mg administered twice weekly followed by 600 mg administered once in a week measured after 84 hrs. It counts as ADME. To be noted: in vivo, read-out: Css.
Data set [20] can be described thus: Ratio of drug concentration at steady state in human at 600 mg administered twice weekly followed by 600 mg administered once in a week measured after 84 hrs to IC50 for human MRP2 overexpressed in Sf9 insect cells. It counts as ADME. The following applies: in vivo.
Data set [21] can be described thus: Ratio of drug concentration at steady state in human at 600 mg administered twice weekly followed by 600 mg administered once in a week measured after 84 hrs to IC50 for human MRP3 overexpressed in Sf9 insect cells. It counts as ADME. The following applies: in vivo.
Data set [22] is described as follows: Ratio of drug concentration at steady state in human at 200 to 600 mg, po QD after 24 hrs to IC50 for human BSEP overexpressed in Sf9 insect cells. It counts as ADME, organism-based. To be noted: in vivo.
Data set [23] in a line: Drug concentration at steady state in human at 200 to 600 mg, po QD after 24 hrs. The following applies: in vivo, read-out: Css. It counts as ADME, organism-based.
Data set [24] is described as follows: Ratio of drug concentration at steady state in human at 200 to 600 mg, po QD after 24 hrs to IC50 for human MRP4 overexpressed in Sf9 insect cells. It counts as ADME, organism-based. To be noted: in vivo.
Data set [25] can be described thus: AUC in human at 200 to 600 mg, po QD after 24 hrs. It counts as ADME, organism-based. The following applies: in vivo.
The nature of data set [26]: Ratio of drug concentration at steady state in human at 200 to 600 mg, po QD after 24 hrs to IC50 for human MRP3 overexpressed in Sf9 insect cells. It is filed as ADME, organism-based. To be noted: in vivo.

Some results are limits rather than exact numbers.

Chain of Bile salt export pump (O95342 whole entry): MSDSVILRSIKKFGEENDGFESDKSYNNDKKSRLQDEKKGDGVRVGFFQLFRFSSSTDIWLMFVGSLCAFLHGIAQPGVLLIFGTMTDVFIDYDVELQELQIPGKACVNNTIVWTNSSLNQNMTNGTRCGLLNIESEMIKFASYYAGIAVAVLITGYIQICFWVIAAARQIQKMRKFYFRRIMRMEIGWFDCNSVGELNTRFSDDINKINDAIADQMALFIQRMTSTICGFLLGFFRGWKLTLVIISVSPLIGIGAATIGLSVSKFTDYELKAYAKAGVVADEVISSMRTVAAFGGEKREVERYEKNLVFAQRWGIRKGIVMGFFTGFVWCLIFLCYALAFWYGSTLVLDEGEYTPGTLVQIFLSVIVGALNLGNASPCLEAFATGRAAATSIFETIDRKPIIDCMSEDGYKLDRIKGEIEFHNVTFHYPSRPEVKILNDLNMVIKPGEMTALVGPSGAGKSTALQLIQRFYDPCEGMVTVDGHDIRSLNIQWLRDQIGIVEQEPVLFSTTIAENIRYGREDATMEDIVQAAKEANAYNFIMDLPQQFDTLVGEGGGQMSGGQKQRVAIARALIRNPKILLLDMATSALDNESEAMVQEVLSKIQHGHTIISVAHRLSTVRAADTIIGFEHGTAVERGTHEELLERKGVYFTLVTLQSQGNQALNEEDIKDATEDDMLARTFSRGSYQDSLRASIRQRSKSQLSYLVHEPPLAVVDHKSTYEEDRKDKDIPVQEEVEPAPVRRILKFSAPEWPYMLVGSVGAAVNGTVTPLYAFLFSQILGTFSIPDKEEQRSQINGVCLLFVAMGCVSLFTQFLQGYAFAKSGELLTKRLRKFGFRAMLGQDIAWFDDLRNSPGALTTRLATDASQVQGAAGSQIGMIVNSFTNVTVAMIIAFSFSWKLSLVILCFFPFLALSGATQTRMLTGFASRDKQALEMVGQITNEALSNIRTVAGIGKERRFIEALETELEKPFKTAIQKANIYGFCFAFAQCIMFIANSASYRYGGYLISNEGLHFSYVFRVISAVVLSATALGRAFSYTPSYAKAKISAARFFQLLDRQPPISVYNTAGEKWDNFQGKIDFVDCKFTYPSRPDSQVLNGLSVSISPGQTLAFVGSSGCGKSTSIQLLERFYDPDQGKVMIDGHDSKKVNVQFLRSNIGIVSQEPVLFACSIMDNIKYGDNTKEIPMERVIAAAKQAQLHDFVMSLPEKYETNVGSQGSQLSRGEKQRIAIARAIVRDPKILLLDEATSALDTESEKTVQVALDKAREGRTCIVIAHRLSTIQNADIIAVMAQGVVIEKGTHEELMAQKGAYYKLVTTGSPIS
Chain of ATP-binding cassette sub-family C member 2 (Q92887 whole entry): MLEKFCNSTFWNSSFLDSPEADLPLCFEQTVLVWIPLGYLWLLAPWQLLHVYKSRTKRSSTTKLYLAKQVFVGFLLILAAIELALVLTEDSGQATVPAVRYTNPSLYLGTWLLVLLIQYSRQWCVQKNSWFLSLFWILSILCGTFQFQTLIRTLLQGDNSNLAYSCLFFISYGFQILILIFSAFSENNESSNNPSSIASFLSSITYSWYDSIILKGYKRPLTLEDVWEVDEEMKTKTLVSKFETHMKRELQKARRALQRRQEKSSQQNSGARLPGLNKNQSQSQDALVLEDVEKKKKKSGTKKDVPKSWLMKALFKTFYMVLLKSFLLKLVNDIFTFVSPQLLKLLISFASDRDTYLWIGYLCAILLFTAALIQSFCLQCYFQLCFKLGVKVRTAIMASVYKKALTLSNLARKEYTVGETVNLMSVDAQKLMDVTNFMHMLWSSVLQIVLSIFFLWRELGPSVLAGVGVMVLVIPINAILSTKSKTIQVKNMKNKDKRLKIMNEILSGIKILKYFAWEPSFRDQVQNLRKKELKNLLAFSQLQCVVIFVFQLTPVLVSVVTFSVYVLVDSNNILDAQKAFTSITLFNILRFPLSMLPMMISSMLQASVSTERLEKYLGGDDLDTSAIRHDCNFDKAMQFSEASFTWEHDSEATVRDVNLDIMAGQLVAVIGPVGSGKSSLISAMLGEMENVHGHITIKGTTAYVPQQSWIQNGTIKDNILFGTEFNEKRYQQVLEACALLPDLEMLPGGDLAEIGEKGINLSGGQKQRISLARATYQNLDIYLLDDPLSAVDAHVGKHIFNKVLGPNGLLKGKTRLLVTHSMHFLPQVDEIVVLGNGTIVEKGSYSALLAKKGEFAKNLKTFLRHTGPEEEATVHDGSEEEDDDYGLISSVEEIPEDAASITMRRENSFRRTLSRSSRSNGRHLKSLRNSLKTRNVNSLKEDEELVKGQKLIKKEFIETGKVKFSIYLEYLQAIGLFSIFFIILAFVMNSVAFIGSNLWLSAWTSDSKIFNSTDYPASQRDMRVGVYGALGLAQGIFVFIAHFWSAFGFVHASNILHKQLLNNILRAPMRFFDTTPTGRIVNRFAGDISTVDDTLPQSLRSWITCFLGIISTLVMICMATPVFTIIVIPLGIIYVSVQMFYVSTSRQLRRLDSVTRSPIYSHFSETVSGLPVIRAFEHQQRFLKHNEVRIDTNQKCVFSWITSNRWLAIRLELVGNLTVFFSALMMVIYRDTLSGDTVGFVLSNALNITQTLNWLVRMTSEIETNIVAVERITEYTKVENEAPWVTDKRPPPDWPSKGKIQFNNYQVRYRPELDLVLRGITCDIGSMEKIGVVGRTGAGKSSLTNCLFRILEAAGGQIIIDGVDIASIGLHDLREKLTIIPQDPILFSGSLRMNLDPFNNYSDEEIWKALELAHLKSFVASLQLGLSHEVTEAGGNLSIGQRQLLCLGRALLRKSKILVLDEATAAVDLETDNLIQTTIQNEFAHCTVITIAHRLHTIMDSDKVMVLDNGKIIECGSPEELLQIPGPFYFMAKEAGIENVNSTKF
Chain of ATP-binding cassette sub-family C member 3 (O15438 whole entry): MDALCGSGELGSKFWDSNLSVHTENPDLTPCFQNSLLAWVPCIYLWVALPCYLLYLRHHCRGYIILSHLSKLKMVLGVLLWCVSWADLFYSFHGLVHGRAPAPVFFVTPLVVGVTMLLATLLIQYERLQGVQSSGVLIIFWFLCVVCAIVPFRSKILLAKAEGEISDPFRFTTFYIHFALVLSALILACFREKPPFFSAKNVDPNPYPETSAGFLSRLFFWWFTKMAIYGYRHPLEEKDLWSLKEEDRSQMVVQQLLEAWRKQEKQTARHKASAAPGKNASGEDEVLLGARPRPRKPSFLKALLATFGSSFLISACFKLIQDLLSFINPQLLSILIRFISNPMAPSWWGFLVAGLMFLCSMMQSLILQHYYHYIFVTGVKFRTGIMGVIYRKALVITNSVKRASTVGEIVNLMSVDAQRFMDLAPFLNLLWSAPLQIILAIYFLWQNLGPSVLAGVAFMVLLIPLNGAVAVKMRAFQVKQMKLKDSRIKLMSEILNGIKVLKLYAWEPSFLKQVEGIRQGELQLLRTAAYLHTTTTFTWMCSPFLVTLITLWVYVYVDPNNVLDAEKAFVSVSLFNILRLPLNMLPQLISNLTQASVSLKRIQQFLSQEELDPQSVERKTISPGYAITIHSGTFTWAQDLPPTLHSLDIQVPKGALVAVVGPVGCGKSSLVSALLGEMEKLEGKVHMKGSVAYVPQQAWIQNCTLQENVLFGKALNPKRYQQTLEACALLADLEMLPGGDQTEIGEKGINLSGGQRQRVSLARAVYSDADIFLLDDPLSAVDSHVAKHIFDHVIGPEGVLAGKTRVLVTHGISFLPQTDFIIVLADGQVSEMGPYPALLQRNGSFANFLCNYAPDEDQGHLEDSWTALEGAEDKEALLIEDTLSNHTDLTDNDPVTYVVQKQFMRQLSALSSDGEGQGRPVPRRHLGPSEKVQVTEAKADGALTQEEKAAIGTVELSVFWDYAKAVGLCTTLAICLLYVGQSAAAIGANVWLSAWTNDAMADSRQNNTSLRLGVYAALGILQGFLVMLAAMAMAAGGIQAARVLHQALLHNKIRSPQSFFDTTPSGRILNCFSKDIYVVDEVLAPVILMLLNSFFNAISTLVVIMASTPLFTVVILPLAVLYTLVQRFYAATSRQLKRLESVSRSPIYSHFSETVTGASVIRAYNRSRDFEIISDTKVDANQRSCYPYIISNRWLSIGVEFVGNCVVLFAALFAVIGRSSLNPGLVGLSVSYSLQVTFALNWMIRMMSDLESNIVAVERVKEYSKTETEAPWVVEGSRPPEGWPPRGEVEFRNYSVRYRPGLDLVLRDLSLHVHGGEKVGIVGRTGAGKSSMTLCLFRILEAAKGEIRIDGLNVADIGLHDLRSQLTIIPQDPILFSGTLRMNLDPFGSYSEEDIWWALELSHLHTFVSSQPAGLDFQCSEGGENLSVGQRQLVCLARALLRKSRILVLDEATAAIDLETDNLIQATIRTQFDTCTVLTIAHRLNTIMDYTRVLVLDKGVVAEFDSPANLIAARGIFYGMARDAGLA

With `Cc1cccc(C)c1OCC(=O)N[C@@H](Cc1ccccc1)[C@@H](O)C[C@H](Cc1ccccc1)NC(=O)[C@H](C(C)C)N1CCCNC1=O` [LOPINAVIR], the Ratio is listed as 0.14 in data set [1], 0.381 in data set [4] and 0.314 in data set [7]. Further, the values for the IC50 in [2], in data set [5] and in data set [8] were > 133 µM, 47 µM and 21 µM, respectively. This compound had an area under the curve (AUC) at 24 h in data set [3] of 158 µM·h. Further, the concentration at 24 h in data set [6] amounted to 6.6 µM.

Turning to `CC(=O)O.C[C@@H](O)[C@@H]1NC(=O)[C@H](CCCCN)NC(=O)[C@@H](Cc2c[nH]c3ccccc23)NC(=O)[C@H](Cc2ccccc2)NC(=O)[C@@H](NC(=O)[C@H](N)Cc2ccccc2)CSSC[C@@H](C(=O)N[C@H](CO)[C@@H](C)O)NC1=O` [OCTREOTIDE ACETATE], the concentration for half-maximal inhibition (IC50) in data set [2] is > 133 µM; in data set [5], > 133 µM; in data set [11], 9.34 µM; in data set [8], > 133 µM. Further, in data set [9], the concentration at 8 h came out at 5.28 µM. In addition, the Ratio in data set [10] worked out at 0.565. Besides, the exposure (AUC) at 8 h in [12] amounted to 42.2 µM·h.

On to `CC[C@@H]([C@H](C)O)n1ncn(-c2ccc(N3CCN(c4ccc(OC[C@@H]5CO[C@@](Cn6cncn6)(c6ccc(F)cc6F)C5)cc4)CC3)cc2)c1=O` [POSACONAZOLE], for which the concentration for half-maximal inhibition (IC50) was > 133 µM in data set [2], > 133 µM in [5], 8.1 µM in data set [11] and > 133 µM in data set [8]. Moreover, the concentration at 8 h in data set [13] worked out at 4.41 µM. For the same compound, the AUC at 8 h in [14] came out at 35.2 µM·h. Also, the Ratio in data set [15] came to 0.544.

In the case of `CO[C@H]1/C=C/O[C@@]2(C)Oc3c(C)c(O)c4c(O)c(c(/C=N/N5CCN(C6CCCC6)CC5)c(O)c4c3C2=O)NC(=O)/C(C)=C\C=C\[C@H](C)[C@H](O)[C@@H](C)[C@@H](O)[C@@H](C)[C@H](OC(C)=O)[C@@H]1C` [RIFAPENTINE], the IC50 in data set [2] is 16.3 µM; in data set [5] it was 35.9 µM; in data set [11], 9.91 µM; in data set [8], 80.9 µM. Further, the Ratio in [16] is 0.474; in data set [18], 0.131; in data set [20], 0.288; in data set [21] it was 0.058. In data set [17], this compound displayed an AUC at 84 h of 395 µM·h. Further, in data set [19], the concentration at 84 h was determined as 4.7 µM.

In the case of `Cc1c(C)c2c(c(C)c1O)CCC(C)(COc1ccc(CC3SC(=O)NC3=O)cc1)O2` (stereo not given) [TROGLITAZONE], the Ratio in data set [22] came to 0.313; in data set [24], 0.015; in data set [26] it was 0.03. Besides, in data set [23], the concentration at 24 h was determined as 0.939 µM. Further, the IC50 in [5] came to 61 µM; in data set [11], 3 µM; in data set [8], 31 µM. For the same compound, the AUC at 24 h in [25] turned out to be 22.5 µM·h.
